ChEMBL document CHEMBL1145498, “A systematic interaction map of validated kinase inhibitors with Ser/Thr kinases” (Proc Natl Acad Sci U S A, 2007)

Key:
[1] = target: Calcium/calmodulin-dependent protein kinase type II subunit alpha (Homo sapiens) (UniProt Q9UQM7)
[2] = target: Calcium/calmodulin-dependent protein kinase type II subunit delta (Homo sapiens) (UniProt Q13557)
[3] = target: Calcium/calmodulin-dependent protein kinase type II subunit gamma (Homo sapiens) (UniProt Q13555)
[4] = target: Cyclin-dependent kinase 2 (Homo sapiens, UniProt P24941)
[5] = target: Cyclin-dependent kinase-like 1 (Homo sapiens) (UniProt Q00532)
[6] = target: Dual specificity protein kinase CLK1 (Homo sapiens) (UniProt P49759)
Chain of Dual specificity protein kinase CLK1 (Homo sapiens) (P49759 whole entry, looked up, canonical isoform): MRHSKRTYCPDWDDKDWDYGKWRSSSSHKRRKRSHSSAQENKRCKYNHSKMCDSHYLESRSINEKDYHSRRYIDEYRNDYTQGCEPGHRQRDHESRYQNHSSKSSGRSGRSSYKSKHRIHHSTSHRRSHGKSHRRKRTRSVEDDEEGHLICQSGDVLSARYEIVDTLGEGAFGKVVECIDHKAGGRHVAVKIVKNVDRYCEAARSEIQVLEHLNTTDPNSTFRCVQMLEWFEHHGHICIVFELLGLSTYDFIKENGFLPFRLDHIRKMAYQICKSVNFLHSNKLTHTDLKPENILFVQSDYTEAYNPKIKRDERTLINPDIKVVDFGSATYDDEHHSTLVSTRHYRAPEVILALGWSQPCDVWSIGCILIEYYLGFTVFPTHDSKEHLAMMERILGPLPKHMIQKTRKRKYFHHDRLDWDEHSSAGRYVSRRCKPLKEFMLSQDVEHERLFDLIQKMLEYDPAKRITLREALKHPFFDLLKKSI

[7] = target: Casein kinase I isoform gamma-2 (Homo sapiens) (UniProt P78368)
Chain of Casein kinase I isoform gamma-2 (Homo sapiens) (P78368 whole entry, looked up, canonical isoform): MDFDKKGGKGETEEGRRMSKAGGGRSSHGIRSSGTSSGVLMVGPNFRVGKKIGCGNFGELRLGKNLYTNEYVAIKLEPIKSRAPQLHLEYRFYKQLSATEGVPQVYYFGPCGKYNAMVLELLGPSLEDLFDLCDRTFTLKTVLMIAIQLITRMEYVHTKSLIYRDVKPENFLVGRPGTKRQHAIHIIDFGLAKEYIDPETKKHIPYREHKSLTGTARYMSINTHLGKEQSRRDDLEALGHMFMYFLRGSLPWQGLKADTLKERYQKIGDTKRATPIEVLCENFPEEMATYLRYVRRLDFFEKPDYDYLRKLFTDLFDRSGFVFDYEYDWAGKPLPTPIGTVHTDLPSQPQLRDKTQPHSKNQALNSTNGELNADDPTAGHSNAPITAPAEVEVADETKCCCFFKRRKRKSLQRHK

[8] = target: Glycogen synthase kinase-3 beta (Homo sapiens, UniProt P49841)
[9] = target: Dual specificity mitogen-activated protein kinase kinase 2 (Homo sapiens, UniProt P36507)
Chain of Dual specificity mitogen-activated protein kinase kinase 2 (P36507 whole entry): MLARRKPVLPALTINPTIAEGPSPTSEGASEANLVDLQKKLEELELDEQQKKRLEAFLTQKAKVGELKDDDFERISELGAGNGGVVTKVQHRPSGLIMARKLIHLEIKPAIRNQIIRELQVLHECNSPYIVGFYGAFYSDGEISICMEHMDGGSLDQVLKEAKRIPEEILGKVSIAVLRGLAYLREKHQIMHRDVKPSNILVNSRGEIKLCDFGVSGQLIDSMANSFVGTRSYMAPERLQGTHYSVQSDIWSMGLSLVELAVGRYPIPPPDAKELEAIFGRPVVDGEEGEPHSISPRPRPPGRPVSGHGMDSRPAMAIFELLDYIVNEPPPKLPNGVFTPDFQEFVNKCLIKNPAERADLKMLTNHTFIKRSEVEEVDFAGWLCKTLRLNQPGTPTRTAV

[10] = target: T1, Mitogen-activated protein kinase kinase kinase 5 (Homo sapiens) (UniProt Q99683)
T1 sequence (whole entry): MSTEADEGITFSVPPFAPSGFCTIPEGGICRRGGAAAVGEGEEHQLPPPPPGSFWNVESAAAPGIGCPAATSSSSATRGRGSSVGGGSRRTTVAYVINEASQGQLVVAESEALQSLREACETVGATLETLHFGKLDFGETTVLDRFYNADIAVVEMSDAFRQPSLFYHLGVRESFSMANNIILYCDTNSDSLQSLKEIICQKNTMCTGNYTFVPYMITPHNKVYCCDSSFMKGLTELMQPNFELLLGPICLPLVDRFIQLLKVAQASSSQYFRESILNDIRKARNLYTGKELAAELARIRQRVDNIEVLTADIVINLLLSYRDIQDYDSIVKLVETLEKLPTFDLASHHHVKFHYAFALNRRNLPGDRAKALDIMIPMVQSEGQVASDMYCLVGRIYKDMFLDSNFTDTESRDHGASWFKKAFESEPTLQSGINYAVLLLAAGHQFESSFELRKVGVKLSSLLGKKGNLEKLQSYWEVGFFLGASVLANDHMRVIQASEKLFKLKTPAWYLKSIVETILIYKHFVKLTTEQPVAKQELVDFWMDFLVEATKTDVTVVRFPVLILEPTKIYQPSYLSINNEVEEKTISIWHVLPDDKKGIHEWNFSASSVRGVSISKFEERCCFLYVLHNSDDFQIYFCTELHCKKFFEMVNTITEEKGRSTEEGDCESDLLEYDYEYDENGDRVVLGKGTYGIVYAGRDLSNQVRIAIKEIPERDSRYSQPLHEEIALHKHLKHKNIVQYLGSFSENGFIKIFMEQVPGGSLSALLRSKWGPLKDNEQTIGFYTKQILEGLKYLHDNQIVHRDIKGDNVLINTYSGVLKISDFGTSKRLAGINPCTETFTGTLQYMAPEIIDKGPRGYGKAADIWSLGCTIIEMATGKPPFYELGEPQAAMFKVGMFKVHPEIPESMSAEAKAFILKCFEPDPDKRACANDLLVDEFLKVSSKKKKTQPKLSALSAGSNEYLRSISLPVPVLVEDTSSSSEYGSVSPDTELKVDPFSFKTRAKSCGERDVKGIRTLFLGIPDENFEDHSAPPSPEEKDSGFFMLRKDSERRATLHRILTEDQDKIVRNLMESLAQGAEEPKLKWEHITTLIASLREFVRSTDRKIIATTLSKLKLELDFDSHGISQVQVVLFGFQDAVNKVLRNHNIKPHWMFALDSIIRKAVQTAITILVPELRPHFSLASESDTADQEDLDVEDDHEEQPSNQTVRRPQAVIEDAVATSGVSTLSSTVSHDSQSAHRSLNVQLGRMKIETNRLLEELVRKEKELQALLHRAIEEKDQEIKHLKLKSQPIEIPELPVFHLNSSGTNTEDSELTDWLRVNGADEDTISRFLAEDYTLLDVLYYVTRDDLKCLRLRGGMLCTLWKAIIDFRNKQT

[11] = target: Serine/threonine-protein kinase 26 (Homo sapiens) (UniProt Q9P289)
[12] = target: T2, Serine/threonine-protein kinase Nek2 (Homo sapiens) (UniProt P51955)
T2 sequence (whole entry): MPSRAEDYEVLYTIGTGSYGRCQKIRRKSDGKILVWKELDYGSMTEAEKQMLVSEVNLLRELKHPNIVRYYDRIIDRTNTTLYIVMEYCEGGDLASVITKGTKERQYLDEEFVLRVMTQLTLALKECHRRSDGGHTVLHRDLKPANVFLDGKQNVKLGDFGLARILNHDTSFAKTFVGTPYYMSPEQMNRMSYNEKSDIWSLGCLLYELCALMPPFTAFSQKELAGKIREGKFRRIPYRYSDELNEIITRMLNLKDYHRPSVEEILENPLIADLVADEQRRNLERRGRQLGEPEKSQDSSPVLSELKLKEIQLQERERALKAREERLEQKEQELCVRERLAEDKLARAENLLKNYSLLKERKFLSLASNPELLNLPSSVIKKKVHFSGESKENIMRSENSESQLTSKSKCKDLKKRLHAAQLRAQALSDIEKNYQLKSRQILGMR

[13] = target: Serine/threonine-protein kinase PAK 6 (Homo sapiens) (UniProt Q9NQU5)
Chain of Serine/threonine-protein kinase PAK 6 (Homo sapiens) (Q9NQU5 whole entry, looked up): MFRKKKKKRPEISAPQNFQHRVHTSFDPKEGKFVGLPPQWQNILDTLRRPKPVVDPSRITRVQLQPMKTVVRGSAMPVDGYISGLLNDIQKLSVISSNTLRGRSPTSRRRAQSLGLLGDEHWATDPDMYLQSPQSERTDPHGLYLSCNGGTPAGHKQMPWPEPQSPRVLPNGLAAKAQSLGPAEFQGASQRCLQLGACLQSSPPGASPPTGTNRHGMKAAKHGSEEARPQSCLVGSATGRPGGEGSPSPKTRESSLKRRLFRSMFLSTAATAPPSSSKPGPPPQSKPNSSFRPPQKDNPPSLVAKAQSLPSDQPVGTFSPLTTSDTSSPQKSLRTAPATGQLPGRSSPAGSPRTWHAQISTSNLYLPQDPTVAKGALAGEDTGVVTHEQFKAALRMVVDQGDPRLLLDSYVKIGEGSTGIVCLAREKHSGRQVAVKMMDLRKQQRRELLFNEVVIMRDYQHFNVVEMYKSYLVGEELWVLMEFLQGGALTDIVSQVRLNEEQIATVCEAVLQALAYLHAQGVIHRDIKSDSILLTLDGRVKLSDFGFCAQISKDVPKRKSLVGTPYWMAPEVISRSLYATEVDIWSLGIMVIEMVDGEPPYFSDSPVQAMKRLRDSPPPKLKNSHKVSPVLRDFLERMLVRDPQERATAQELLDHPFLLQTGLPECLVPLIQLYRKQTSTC

[14] = target: Serine/threonine-protein kinase pim-1 (Homo sapiens) (UniProt P11309)
Chain of Serine/threonine-protein kinase pim-1 (Homo sapiens) (P11309 whole entry, looked up): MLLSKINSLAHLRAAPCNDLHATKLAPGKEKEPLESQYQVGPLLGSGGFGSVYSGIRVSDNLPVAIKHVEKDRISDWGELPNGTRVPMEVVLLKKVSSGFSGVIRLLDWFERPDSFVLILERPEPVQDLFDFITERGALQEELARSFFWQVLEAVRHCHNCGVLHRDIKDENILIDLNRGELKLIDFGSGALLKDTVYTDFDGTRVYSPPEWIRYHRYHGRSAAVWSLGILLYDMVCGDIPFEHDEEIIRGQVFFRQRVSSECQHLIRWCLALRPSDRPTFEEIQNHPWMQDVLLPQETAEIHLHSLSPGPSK

[15] = target: Serine/threonine-protein kinase PLK1 (Homo sapiens) (UniProt P53350)
[16] = target: Serine/threonine-protein kinase 10 (Homo sapiens) (UniProt O94804)
Chain of Serine/threonine-protein kinase 10 (Homo sapiens) (O94804 whole entry, looked up): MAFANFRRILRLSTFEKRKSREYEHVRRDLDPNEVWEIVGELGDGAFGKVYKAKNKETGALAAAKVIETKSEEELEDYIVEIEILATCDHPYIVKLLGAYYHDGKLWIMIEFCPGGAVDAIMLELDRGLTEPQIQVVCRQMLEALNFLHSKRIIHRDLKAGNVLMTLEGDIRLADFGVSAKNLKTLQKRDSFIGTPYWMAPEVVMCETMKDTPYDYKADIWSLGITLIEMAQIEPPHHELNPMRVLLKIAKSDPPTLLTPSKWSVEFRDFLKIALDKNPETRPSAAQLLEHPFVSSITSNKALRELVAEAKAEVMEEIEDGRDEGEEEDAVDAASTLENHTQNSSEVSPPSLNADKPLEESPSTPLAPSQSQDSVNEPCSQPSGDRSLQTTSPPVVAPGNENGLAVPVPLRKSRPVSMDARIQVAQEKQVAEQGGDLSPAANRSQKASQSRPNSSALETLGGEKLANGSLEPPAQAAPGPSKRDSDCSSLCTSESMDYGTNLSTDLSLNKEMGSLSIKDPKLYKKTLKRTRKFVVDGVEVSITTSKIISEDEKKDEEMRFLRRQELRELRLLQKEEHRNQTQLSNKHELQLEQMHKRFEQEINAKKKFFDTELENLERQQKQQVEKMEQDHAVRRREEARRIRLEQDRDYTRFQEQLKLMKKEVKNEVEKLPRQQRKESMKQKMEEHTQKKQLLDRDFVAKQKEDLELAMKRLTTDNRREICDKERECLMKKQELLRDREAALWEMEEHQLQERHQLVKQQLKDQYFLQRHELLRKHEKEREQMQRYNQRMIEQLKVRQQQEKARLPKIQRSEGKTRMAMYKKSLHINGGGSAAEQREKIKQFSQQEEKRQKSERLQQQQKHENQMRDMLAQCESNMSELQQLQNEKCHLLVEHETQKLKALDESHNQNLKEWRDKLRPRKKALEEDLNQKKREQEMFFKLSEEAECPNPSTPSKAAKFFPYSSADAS

[17] = target: Serine/threonine-protein kinase 26 (Homo sapiens) (UniProt Q9P289); remark: listed apart in the source
[18] = target: TRAF2 and NCK-interacting protein kinase (Homo sapiens) (UniProt Q9UKE5)
Chain of TRAF2 and NCK-interacting protein kinase (Homo sapiens) (Q9UKE5 whole entry, looked up): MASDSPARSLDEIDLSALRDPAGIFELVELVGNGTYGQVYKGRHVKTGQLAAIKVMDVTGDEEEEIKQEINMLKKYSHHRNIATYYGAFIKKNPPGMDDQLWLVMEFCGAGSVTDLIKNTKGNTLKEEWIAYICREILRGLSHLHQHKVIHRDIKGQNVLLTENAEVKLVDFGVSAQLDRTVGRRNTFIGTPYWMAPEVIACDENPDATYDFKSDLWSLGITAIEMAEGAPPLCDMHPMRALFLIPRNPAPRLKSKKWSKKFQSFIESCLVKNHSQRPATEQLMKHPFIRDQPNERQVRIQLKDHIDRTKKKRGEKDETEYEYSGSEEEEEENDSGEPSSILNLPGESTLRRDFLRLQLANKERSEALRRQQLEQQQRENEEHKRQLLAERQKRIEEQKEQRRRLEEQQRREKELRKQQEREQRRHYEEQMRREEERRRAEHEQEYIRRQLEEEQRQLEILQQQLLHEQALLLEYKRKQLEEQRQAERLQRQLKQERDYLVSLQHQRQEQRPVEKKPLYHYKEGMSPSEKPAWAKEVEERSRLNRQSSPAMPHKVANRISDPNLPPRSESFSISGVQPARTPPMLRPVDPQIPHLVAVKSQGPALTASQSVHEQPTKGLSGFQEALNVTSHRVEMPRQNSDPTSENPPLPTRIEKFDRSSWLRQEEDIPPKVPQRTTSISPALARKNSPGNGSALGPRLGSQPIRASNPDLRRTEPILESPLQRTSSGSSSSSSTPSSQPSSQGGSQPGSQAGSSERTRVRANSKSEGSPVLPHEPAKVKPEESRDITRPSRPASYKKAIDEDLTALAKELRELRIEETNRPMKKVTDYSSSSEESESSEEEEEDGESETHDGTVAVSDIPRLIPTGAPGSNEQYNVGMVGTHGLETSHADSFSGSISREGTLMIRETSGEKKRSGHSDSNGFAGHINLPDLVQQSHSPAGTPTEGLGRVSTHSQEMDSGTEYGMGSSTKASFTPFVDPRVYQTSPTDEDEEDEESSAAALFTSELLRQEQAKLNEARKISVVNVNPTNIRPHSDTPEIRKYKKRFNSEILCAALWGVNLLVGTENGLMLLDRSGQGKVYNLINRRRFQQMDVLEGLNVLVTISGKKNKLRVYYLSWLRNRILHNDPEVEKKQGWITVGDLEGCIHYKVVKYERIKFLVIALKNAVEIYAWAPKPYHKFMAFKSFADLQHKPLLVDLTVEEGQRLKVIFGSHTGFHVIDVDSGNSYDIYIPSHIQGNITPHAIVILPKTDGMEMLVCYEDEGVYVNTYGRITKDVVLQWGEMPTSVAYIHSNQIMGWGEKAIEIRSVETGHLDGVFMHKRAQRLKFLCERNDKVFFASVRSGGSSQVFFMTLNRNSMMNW

[19] = target: Serine/threonine-protein kinase 25 (Homo sapiens) (UniProt O00506)
Chain of Serine/threonine-protein kinase 25 (Homo sapiens) (O00506 whole entry, looked up): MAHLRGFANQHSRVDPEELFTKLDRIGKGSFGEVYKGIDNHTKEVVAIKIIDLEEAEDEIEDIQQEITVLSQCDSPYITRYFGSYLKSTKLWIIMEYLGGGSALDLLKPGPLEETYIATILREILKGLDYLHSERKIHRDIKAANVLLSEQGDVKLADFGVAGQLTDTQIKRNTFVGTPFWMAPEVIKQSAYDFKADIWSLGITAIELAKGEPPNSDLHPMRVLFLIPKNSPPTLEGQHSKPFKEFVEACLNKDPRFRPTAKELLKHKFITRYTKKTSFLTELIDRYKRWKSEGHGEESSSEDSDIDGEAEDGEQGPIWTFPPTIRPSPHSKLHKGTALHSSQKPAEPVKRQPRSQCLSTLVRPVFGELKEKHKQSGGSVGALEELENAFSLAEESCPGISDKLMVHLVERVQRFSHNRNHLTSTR

Row | SMILES | ΔTm [1] [°C] | ΔTm [2] [°C] | ΔTm [3] [°C] | ΔTm [4] [°C] | ΔTm [5] [°C] | ΔTm [6] [°C] | ΔTm [7] [°C] | ΔTm [8] [°C] | ΔTm [9] [°C] | ΔTm [10] [°C] | ΔTm [11] [°C] | ΔTm [12] [°C] | ΔTm [13] [°C] | ΔTm [14] [°C] | ΔTm [15] [°C] | ΔTm [16] [°C] | ΔTm [17] [°C] | ΔTm [18] [°C] | ΔTm [19] [°C]
1 | CCOC(=O)c1cnc2oc3ccc(O)cc3c2c1-c1ccccc1 | 0.7 | -0.1 | 0.5 | 1 | -0.3 | 6.2 | 1.1 | 4.3 | 0.5 | 2.1 | -0.2 | 0.9 | 0.3 | 5.1 | 0.8 | 2.9 | 0 | 1.3 | 0
2 | NCCNS(=O)(=O)c1cccc2c(Cl)cccc12 | 0.7 | -0.1 | 0.4 | 0.1 | -0.1 | 0.9 | 0 | 0.1 | -0.3 | 0.4 | 0 | 0.7 | 0.2 | 2.9 | 0.4 | 0.8 | -0.1 | 0 | -0.2
3 | O=C1C(Cl)=C(N2C(=O)CCC2=O)C(=O)c2ccccc21 | 3.4 | -1.5 | -0.4 | -1.1 | -0.5 | -1.1 | 0.1 | -3.5 | -2.4 | -1.1 | -1.4 | 2.5 | -5 | 0.9 | -0.2 | -0.5 | -2.1 | -2.4 | -0.5
4 | CN(C)S(=O)(=O)c1ccc2c(c1)/C(=C/c1cc3c([nH]1)CCCC3)C(=O)N2 | 3 | 3.2 | 1.2 | 2.3 | 0 | 4.3 | 0.1 | -0.3 | 7 | 1.2 | 6.3 | 2.8 | -4.4 | 0.5 | 0.1 | 7.7 | 1 | 4.2 | 5.3
5 | O=c1c(O)c(-c2ccc(O)c(O)c2)oc2cc(O)cc(O)c12 [QUERCETIN] | 4.1 | 2.7 | 4.9 | 5.3 | 1.6 | 7.7 | 2.4 | 7.8 | 2.4 | 3.4 | 4.4 | 3.4 | 1.1 | 8.1 | 1.7 | 5.5 | 8.1 | 3.3 | 5.3
6 | CCOC(=O)c1c(C)[nH]c(/C=C2\C(=O)Nc3ccccc32)c1C | -0.6 | 0.4 | -0.1 | -3.4 | 0.5 | -1.1 | 0.4 | 2.3 | 0.4 | -1.4 | 0.1 | 0.5 | -0.5 | -0.1 | -0.6 | 1.6 | -0.7 | 0.4 | 0.6
7 | N#CC(C#N)=Cc1ccc(O)c(O)c1 [TYRPHOSTIN 23] | 0.2 | 0.4 | -0.1 | 1.1 | -0.1 | 0.7 | 0.4 | 0.8 | 0.1 | 0.1 | 0.3 | 1.2 | -0.2 | 1.5 | 0.4 | 0.5 | 0.1 | 0.2 | -0.2
8 | Nc1n[nH]c2nc3ccccc3nc12 [QUINOXALINE1] | 0.7 | -0.1 | 0.4 | 1.3 | 0.2 | 1.6 | 0.4 | 2.2 | 0.1 | 2.6 | 0.7 | 1.2 | 0.6 | -0.8 | 0.3 | 1.6 | 0.7 | 0.7 | 1.3
9 | COc1cc(OC)c(/C=C2\C(=O)Nc3ccccc32)c(OC)c1 | -0.1 | -0.3 | 0 | 0.5 | -0.5 | 0.1 | 0.7 | 0.4 | -0.4 | 0 | 0 | 0.4 | 0 | -1 | -0.7 | 0.8 | 0 | 0.8 | 0.1
10 | C/C(O)=C(\C#N)C(=O)Nc1cc(Br)ccc1Br | 0.1 | 0.5 | -0.1 | 1 | 0.8 | 0.5 | 0.4 | 1.8 | -0.2 | -0.7 | 0.2 | 0.9 | -0.2 | 1.4 | 1.3 | 0.9 | -0.1 | -0.1 | -0.1
11 | O=C1Nc2ccc(S(=O)(=O)O)cc2/C1=C1/Nc2ccccc2/C1=N\O | 4.8 | 1.2 | 2.5 | 8.1 | 3.1 | 3.9 | 2.5 | 8.8 | 4.9 | 3.8 | 1.2 | 3.5 | 3.2 | 3.3 | 1.1 | 0.5 | 0.5 | 2.4 | 2.2
